Measured values published in patent US10508108B2, “Tricyclic compounds as inhibitors of mutant IDH enzymes” (Merck Sharp & Dohme Corp., priority 2014, dated 2019).

Target: R132H mutant IDH1 enzyme (Homo sapiens (Human), UniProt O75874, R132H)
Assay: R132H IDH1 Enzymatic Assay
Assay type: biochemical
Conditions: R132H mutant IDH1 enzyme 1.5 nM final; luminescence (Kinase-GLO) readout
Experimental: R132H IDH1 Enzymatic Assay
Luminescence is measured using a PerkinElmer Envision plate reader.

Chain of R132H mutant IDH1 enzyme (O75874 whole entry R132H): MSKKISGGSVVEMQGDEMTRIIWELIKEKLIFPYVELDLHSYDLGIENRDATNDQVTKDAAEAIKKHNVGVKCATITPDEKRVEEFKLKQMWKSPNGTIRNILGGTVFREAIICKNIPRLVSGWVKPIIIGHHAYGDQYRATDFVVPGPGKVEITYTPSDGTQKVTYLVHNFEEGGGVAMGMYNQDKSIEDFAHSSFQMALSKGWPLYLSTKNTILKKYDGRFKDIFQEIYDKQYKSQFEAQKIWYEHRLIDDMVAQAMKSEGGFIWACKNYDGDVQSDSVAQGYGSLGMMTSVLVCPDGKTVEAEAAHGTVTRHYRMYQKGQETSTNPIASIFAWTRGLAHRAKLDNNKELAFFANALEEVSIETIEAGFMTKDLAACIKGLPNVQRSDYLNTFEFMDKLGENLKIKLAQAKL

Structure (SMILES)	IC50 [µM]
COC1CC2CCC(C1)C2C(=O)N1Cc2cccnc2Nc2ccc(N3CCOCC3)cc21 (centres unmarked) [Example 1, 6-{[(3r,8r)-3-Methoxybicyclo[3.2.1]oct-8-yl]carbonyl}-8-morpholin-4-yl-6,11-dihydro-5H-pyrido[2,3-b][1,5]benzodiazepine]	1.05
COC1CC2CCC(C1)C2C(=O)N1Cc2cccnc2Nc2ccc(N3CCOCC3)cc21 (centres unmarked) [Example 2, 6-{[(3s,8s)-3-methoxybicyclo[3.2.1]oct-8-yl]carbonyl}-8-morpholin-4-yl-6,11-dihydro-5H-pyrido[2,3-b][1,5]benzodiazepine]	0.226
CC(C)[C@@H]1COC(=O)N1c1ccc2c(c1)N(C(=O)[C@]13C[C@H]4C[C@H](C[C@H](C4)C1)C3)Cc1cccnc1N2 [Example 119, (4R)-4-(1-Methylethyl)-3-{6-[(3S,5S,7S)-tricyclo[3.3.1.1˜3,7˜]dec-1-ylcarbonyl]-6,11-dihydro-5H-pyrido[2,3-b][1,5]benzodiazepin-8-yl}-1,3-oxazolidin-2-one]	0.022
O=C(C1C[C@H]2COC[C@@H](C1)N2CC(F)(F)F)N1Cc2cccnc2Nc2ccc(N3C[C@H]4CC[C@@H]3CO4)cc21 (stereo partly drawn) [Example 129, (8-((1R,4R)-2-Oxa-5-azabicyclo[2.2.2]octan-5-yl)-5,11-dihydro-6H-benzo[b]pyrido[2,3-e][1,4]diazepin-6-yl)((1R,5S)-9-(2,2,2-trifluoroethyl)-3-oxa-9-azabicyclo[3.3.1]nonan-7-yl)methanone]	0.006
O=C(C1C[C@H]2COC[C@@H](C1)N2CC(F)(F)F)N1Cc2cccnc2Nc2ccc(N3C[C@@H]4CC[C@H]3CO4)cc21 (stereo partly drawn) [Example 130, (8-((1 S,4S)-2-oxa-5-azabicyclo[2.2.2]octan-5-yl)-5,11-dihydro-6H-benzo[b]pyrido[2,3-e][1,4]diazepin-6-yl)((1R,5S)-9-(2,2,2-trifluoroethyl)-3-oxa-9-azabicyclo[3.3.1]nonan-7-yl)methanone]	0.005
